Test results from patent US12258355B2, “Probes for imaging huntingtin protein” (CHDI Foundation, Inc., priority 2014, dated 2025).

Molecular target: T1, Q46 protein aggregates (Homo sapiens, UniProt P42858)
T1 construct: fused on or other part: GST at the N-terminus, cut off with thrombin before the test to start aggregation; The wells held aggregated Q46 without GST
Assay: Q46 radioligand binding assay (RBA)
Conditions: 10 nM ligand [3H3]MK-3328
Summary of the method: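 Aggregates from thrombin-cleaved GST-Q46 (16 h, 37° C) at 5 μM monomer-equivalent were pre-incubated 20 min at room temperature with compound (1 μM to 30 pM) in 150 mM NaCl, 50 mM Tris pH 8.0, then 60 min at 37° C with 10 nM [^3H3]MK-3328. Bound radioactivity was filtered and counted; IC50 came from a four-parameter global fit normalized to vehicle and 3 μM unlabelled MK-3328.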

T1 sequence (P42858 with tags, fused parts or gaps with the stated changes, form open): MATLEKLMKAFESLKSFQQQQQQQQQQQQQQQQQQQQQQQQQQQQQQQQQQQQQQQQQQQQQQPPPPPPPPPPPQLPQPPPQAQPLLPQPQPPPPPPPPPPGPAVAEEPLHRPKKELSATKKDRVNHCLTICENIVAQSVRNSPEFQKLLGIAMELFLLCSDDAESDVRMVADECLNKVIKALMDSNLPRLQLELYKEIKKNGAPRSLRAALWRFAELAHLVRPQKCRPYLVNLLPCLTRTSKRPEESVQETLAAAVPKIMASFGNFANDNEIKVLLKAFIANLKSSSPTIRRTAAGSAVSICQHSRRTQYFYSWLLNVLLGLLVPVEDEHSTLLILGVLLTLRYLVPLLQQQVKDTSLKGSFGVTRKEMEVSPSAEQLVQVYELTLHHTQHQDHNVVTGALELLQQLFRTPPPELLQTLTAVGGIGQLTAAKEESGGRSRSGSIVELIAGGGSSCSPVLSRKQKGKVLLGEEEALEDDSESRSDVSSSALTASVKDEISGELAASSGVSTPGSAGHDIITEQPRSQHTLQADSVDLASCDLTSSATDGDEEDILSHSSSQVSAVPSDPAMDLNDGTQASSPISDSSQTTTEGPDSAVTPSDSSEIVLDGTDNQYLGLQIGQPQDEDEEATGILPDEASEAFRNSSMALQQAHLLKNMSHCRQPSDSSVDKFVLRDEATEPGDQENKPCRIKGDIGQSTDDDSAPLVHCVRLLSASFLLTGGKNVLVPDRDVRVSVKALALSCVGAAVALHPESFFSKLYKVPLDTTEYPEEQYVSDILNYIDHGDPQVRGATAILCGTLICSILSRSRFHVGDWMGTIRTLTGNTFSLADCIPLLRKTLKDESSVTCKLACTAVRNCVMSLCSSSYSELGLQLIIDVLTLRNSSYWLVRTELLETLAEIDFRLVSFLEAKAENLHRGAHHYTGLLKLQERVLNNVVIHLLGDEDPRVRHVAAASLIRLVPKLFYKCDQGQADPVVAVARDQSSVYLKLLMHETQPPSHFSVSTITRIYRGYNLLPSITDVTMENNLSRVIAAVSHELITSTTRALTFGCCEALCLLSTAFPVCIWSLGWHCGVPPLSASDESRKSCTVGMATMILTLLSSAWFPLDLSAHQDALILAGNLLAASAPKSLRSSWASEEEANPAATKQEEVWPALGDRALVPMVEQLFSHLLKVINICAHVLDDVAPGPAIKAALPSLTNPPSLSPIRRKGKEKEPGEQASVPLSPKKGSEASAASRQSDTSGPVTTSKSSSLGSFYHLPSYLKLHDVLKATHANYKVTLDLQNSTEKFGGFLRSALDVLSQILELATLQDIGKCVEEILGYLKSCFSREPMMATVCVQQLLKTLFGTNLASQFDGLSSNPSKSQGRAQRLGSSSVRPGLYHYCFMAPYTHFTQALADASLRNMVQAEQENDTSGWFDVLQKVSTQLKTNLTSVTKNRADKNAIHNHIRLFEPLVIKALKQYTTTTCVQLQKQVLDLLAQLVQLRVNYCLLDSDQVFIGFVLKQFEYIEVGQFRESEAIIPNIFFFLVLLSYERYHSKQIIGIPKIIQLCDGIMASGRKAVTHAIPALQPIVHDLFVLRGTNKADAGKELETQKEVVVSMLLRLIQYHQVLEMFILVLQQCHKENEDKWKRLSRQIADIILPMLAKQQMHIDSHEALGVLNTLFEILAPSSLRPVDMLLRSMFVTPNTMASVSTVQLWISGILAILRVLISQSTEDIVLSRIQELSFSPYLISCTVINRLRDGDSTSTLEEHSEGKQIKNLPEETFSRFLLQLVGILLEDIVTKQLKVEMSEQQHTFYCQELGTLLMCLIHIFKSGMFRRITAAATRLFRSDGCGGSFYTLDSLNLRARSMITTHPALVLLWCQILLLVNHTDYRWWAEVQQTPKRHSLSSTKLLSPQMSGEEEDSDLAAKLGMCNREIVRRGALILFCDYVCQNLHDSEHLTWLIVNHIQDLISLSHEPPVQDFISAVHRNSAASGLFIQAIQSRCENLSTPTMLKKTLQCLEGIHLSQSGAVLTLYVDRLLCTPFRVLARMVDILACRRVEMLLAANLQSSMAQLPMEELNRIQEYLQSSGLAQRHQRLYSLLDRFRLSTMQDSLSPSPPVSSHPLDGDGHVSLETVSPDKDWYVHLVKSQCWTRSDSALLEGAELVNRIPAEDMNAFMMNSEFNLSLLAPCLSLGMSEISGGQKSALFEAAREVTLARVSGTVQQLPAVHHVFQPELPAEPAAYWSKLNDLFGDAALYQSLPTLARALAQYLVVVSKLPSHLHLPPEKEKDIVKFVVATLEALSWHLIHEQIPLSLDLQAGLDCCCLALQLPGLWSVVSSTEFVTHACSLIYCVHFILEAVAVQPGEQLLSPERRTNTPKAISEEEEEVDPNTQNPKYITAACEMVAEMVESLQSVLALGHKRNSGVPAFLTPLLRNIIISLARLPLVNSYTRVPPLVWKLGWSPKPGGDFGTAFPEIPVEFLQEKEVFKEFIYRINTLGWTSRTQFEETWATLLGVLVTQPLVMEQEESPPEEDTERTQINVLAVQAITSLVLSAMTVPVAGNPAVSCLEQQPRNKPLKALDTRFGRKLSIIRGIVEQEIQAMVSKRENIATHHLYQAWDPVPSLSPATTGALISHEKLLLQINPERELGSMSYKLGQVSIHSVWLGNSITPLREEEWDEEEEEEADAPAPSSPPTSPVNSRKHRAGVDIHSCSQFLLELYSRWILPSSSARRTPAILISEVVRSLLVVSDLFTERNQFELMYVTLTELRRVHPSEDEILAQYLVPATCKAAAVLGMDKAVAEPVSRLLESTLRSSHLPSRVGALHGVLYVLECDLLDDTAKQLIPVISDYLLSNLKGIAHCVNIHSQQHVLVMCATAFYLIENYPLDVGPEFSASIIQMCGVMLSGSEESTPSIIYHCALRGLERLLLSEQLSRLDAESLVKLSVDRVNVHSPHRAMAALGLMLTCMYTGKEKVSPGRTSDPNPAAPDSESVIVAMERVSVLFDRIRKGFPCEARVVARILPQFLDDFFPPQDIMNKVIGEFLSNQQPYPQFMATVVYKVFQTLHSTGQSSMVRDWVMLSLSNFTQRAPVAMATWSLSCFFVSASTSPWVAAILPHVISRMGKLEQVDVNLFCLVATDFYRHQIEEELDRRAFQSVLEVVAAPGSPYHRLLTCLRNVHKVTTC

Row | SMILES | IC50 [nM]
1 | Cn1cc(COc2ccc3oc(-c4cccnc4)nc3c2)ncc1=O [1-methyl-5-({[2-(pyridin-3-yl)-1,3-benzoxazol-5-yl]oxy}methyl)-1,2-dihydropyrazin-2-one] | 100 to 500
2 | COc1cccnc1C(=O)Nc1ccc2oc(-c3cccnc3)nc2c1 [3-methoxy-N-[2-(pyridin-3-yl)-1,3-benzoxazol-5-yl]pyridine-2-carboxamide] | 100 to 500
3 | COc1ccc(COc2ccc3oc(-c4ccc(=O)[nH]c4)nc3c2)nc1 [5-{5-[(5-methoxypyridin-2-yl)methoxy]-1,3-benzoxazol-2-yl}-1,2-dihydropyridin-2-one] | < 100
4 | c1cncc(COc2ccc3oc(-c4cccnc4)nc3c2)c1 [2-(pyridin-3-yl)-5-(pyridin-3-ylmethoxy)-1,3-benzoxazole] | < 100
5 | C1=C(COc2ccc3oc(-c4cccnc4)nc3c2)N2CCN=C2S1 [5-{5H,6H-imidazo[2,1-b][1,3]thiazol-3-ylmethoxy}-2-(pyridin-3-yl)-1,3-benzoxazole] | 100 to 500
6 | N#Cc1cnccc1-c1cc2cc(OCc3cn[nH]c3)ccc2o1 [4-[5-(1H-pyrazol-4-ylmethoxy)-1-benzofuran-2-yl]pyridine-3-carbonitrile] | < 100
7 | COc1ccc(COc2ccc3oc(-c4ccnc(C)c4)nc3c2)nc1 [5-[(5-methoxypyridin-2-yl)methoxy]-2-(2-methylpyridin-4-yl)-1,3-benzoxazole] | < 100
8 | COc1ccc(C(=O)Nc2ccc3oc(-c4ccc(OC)cc4)nc3c2)cc1 [4-methoxy-N-[2-(4-methoxyphenyl)-1,3-benzoxazol-5-yl]benzamide] | < 100
9 | COCCOc1cnc(-c2ccc3oc(-c4cccnc4)nc3c2)nc1 [5-[5-(2-methoxyethoxy)pyrimidin-2-yl]-2-(pyridin-3-yl)-1,3-benzoxazole] | < 100
10 | COc1ccc(-c2nc3cc(NC(=O)c4ccccc4OC)ccc3o2)cc1 [2-methoxy-N-[2-(4-methoxyphenyl)-1,3-benzoxazol-5-yl]benzamide] | < 100
11 | O=C(Nc1ccc2oc(-c3cccnc3)nc2c1)c1ccc(Oc2ccccc2)nc1 [6-phenoxy-N-[2-(pyridin-3-yl)-1,3-benzoxazol-5-yl]pyridine-3-carboxamide] | < 100
12 | c1ccc(OCCOc2ccc3oc(-c4cccnc4)nc3c2)nc1 [5-[2-(pyridin-2-yloxy)ethoxy]-2-(pyridin-3-yl)-1,3-benzoxazole] | 100 to 500
13 | O=C(Nc1ccc2oc(-c3cccnc3)nc2c1)c1cnc2ccccc2n1 [N-[2-(pyridin-3-yl)-1,3-benzoxazol-5-yl]quinoxaline-2-carboxamide] | < 100
14 | COc1ccc(COc2ccc3oc(-c4ccc(OC)cn4)nc3c2)nc1 [2-(5-methoxypyridin-2-yl)-5-[(5-methoxypyridin-2-yl)methoxy]-1,3-benzoxazole] | < 100
15 | COc1ccc(COc2ccc3oc(C4CCN(C)CC4)nc3c2)nc1 [5-[(5-methoxypyridin-2-yl)methoxy]-2-(1-methylpiperidin-4-yl)-1,3-benzoxazole] | 100 to 500
16 | COc1ccc(COc2ccc3oc(-c4cn(C)c(=O)cn4)nc3c2)nc1 [5-{5-[(5-methoxypyridin-2-yl)methoxy]-1,3-benzoxazol-2-yl}-1-methyl-1,2-dihydropyrazin-2-one] | < 100
17 | COc1ccc2c(c1)CN(c1ccc3oc(-c4cccnc4)nc3c1)C2=O [5-methoxy-2-[2-(pyridin-3-yl)-1,3-benzoxazol-5-yl]-2,3-dihydro-1H-isoindol-1-one] | < 100
18 | O=C(COc1ccccc1)Nc1ccc2oc(-c3cccnc3)nc2c1 [2-phenoxy-N-[2-(pyridin-3-yl)-1,3-benzoxazol-5-yl]acetamide] | < 100
19 | COc1ccc(COc2ccc3oc(-c4ccc(=O)n(C)n4)nc3c2)nc1 [6-{5-[(5-methoxypyridin-2-yl)methoxy]-1,3-benzoxazol-2-yl}-2-methyl-2,3-dihydropyridazin-3-one] | < 100

Row | SMILES | IC50 [nM]
20 | COc1ccc(C(=O)Nc2ccc3oc(-c4cccnc4)nc3c2)cc1 [4-methoxy-N-[2-(pyridin-3-yl)-1,3-benzoxazol-5-yl]benzamide] | < 100
21 | COc1ccc(COc2ccc3oc([C@H]4Cc5ccccc5O4)nc3c2)nc1 [2-[(2R)-2,3-dihydro-1-benzofuran-2-yl]-5-[(5-methoxypyridin-2-yl)methoxy]-1,3-benzoxazole] | < 100
22 | COc1ccc(C(=O)Nc2ccc3oc(-c4cccc(C)c4)nc3c2)cc1 [4-methoxy-N-[2-(3-methylphenyl)-1,3-benzoxazol-5-yl]benzamide] | < 100
23 | COc1ccc(COc2ccc3oc(-c4cncc(C)c4)nc3c2)nc1 [5-[(5-methoxypyridin-2-yl)methoxy]-2-(5-methylpyridin-3-yl)-1,3-benzoxazole] | < 100
24 | N#Cc1cnccc1-c1cc2cc(OCC3=CSC4=NCCN34)ccc2o1 [4-(5-{5H,6H-imidazo[2,1-b][1,3]thiazol-3-ylmethoxy}-1-benzofuran-2-yl)pyridine-3-carbonitrile] | < 100
25 | COc1ccc(COc2ccc3oc(-c4ccc[n+]([O-])c4)nc3c2)nc1 [3-{5-[(5-methoxypyridin-2-yl)methoxy]-1,3-benzoxazol-2-yl}pyridin-1-ium-1-olate] | < 100
26 | Cn1cc(-c2nc3cc(OCc4cnccn4)cnc3o2)cn1 [2-({[2-(1-methyl-1H-pyrazol-4-yl)-[1,3]oxazolo[5,4-b]pyridin-6-yl]oxy}methyl)pyrazine] | 100 to 500
27 | CN(C)CCCOc1ccc(COc2ccc3oc(-c4cccnc4)nc3c2)cc1 [dimethyl({3-[4-({[2-(pyridin-3-yl)-1,3-benzoxazol-5-yl]oxy}methyl)phenoxy]propyl})amine] | < 100
28 | COc1ccc(COc2ccc3oc([C@@H]4Cc5ccccc5O4)nc3c2)nc1 [2-[(2S)-2,3-dihydro-1-benzofuran-2-yl]-5-[(5-methoxypyridin-2-yl)methoxy]-1,3-benzoxazole] | < 100
29 | O=C(Nc1ccc2oc(-c3cccnc3)nc2c1)c1cc2ccccc2o1 [N-[2-(pyridin-3-yl)-1,3-benzoxazol-5-yl]-1-benzofuran-2-carboxamide] | < 100
30 | COc1ccc(COc2ccc3oc(-c4cccnn4)nc3c2)nc1 [5-[(5-methoxypyridin-2-yl)methoxy]-2-(pyridazin-3-yl)-1,3-benzoxazole] | < 100
31 | COc1ccc(COc2ccc3oc(-c4ccc(NC(C)=O)nc4)nc3c2)nc1 [N-(5-{5-[(5-methoxypyridin-2-yl)methoxy]-1,3-benzoxazol-2-yl}pyridin-2-yl)acetamide] | < 100
32 | COc1cnc(COc2cnc3oc(-c4cnn(C)c4)nc3c2)cn1 [2-methoxy-5-({[2-(1-methyl-1H-pyrazol-4-yl)-[1,3]oxazolo[5,4-b]pyridin-6-yl]oxy}methyl)pyrazine] | < 100
33 | COc1ccc(COc2ccc3oc(-c4ccc(C(F)(F)F)nc4)nc3c2)nc1 [5-[(5-methoxypyridin-2-yl)methoxy]-2-[6-(trifluoromethyl)pyridin-3-yl]-1,3-benzoxazole] | < 100
34 | COc1ccc(COc2ccc3oc(-c4ccncn4)nc3c2)nc1 [5-[(5-methoxypyridin-2-yl)methoxy]-2-(pyrimidin-4-yl)-1,3-benzoxazole] | < 100
35 | Cn1cc(-c2ccc(COc3cnc4oc(-c5cccnc5)nc4c3)nc2)cn1 [5-(1-methyl-1H-pyrazol-4-yl)-2-({[2-(pyridin-3-yl)-[1,3]oxazolo[5,4-b]pyridin-6-yl]oxy}methyl)pyridine] | < 100
36 | CC(C)(C)OC(=O)N1CCN(c2ccc3oc(-c4cccnc4)nc3c2)CC1 [tert-butyl 4-[2-(pyridin-3-yl)-1,3-benzoxazol-5-yl]piperazine-1-carboxylate] | 100 to 500
37 | COc1cncc(NC(=O)c2ccc3oc(-c4cccnc4)nc3c2)c1 [N-(5-methoxypyridin-3-yl)-2-(pyridin-3-yl)-1,3-benzoxazole-5-carboxamide] | < 100
